Experimental data from US10494404B2, “Quinolinium conjugates of cyclosporin” (priority 2014, dated 2019).

Experiments:
[1] = tested on: T cell proliferative response in the draining auricular lymph node; test: Oxazolone contact hypersensitivity model, in vivo T cell proliferation; design: species or system mouse
Procedure: To identify non-immunosuppressive doses of potential neuroprotective compounds for use in models of MS (Al-Izki et al, 2014) we employed a model using epicutaneous application of the ear skin sensitizer, oxazolone, to induce a T cell proliferative response in the draining auricular lymph node peaking 3 days later (Baker et al, 2011).
The contact sensitiser 4-ethoxymethylene-2-phenyl-2-oxazolin-5-one (oxazolone, OX, Sigma) was dissolved (25 mg/ml) in 4:1 acetone:olive oil (AOO). Mice (n=3 per group) received epicutaneous application of either 25 μl of 2.5% OX or AOO on the dorsum of the ear on day 0 (O'Neill et al, 1992). The draining auricular lymph nodes were removed three days later and the induced proliferative response was assessed as previously described. Briefly, 5×10^5 cells per well were cultured in RPMI-1640 medium with glutamate (Gibco®, Invitrogen Ltd, Paisley UK), supplemented with 0.5 mM sodium, in round-bottomed 96 well plates overnight at 37° C. in a humidified atmosphere of 5% CO2. In the presence of 1 μCi^3H-thymidine (PerkinElmer, Mass., USA) per well. […] Results are expressed as mean±SEM thymidine incorporation counts per minute (CPM)

[2] = tested on: isolated rat liver mitochondria; test: Mitochondrial functional parameters in isolated liver mitochondria; type: biochemical; conditions: Compound 1 up to 200 nM, CsA up to 1 μM
Procedure: Oxygen consumption was measured using Oroboros Oxygraph-2K as previously described (Astin et al, 2013). Prior to the assay, the Oxygraph chambers were calibrated with Miro5 buffer (0.5 mM EGTA, 3 mM MgCl2.6H2O, 60 mM K-lactobionate, 20 mM taurine, 10 mM KH2PO4, 20 mM HEPES, 110 mM sucrose, 1 g/l BSA (essentially fatty acid free)). Isolated mitochondria were suspended in Miro5 (at 100-200 μg/ml), loaded into the chamber together with substrates (malate, 2 mM; glutamate, 10 mM), and the O2 flow signal was allowed to stabilise to the basal respiration rate (approx. 10 min).
Freshly isolated mouse liver mitochondria were suspended in MSK buffer containing 10 ug/ml rhodamine123 (dequench mode), at a concentration of 500 ug/ml, and plated in an opaque black 96 well plate. Baseline fluorescence was then measured every 60 seconds for 5 minutes in a Fluostar Optima (Ex480/Em520) before manual addition of compounds (concentrations as specified). Fluorescence measurements were continued for 45 minutes until the addition of 2 uM FCCP, followed by a further 10 minutes of fluorescence readings.
Freshly isolated mitochondria were resuspended in MSK buffer (containing 10 mM glutamate and 2 mM malate) at 1 mg/ml and plated in opaque white 96 well plates, or for neuronal assays, neurons were used 9 days after plating at 15000 cells/well. Drugs were added at the concentrations specified, and for mitochondrial assays were incubated for ten minutes before addition of ADP (5 mM), followed by another 45 minutes. For neuronal assays, drugs were added in neurobasal medium and incubated for 60 minutes. Cell Titer Glo reagent was then added, and the plate shaken for 2 minutes in the dark to lyse cells/mitochondria and release ATP. The plates were incubated a further ten minutes and then luminescence values read using an Optima FluoStar.

For `CC[C@@H]1NC(=O)[C@H]([C@H](O)[C@H](C)C/C=C/CCC[n+]2cccc3ccccc32)N(C)C(=O)[C@H](C(C)C)N(C)C(=O)[C@H](CC(C)C)N(C)C(=O)[C@H](CC(C)C)N(C)C(=O)[C@@H](C)NC(=O)[C@H](C)NC(=O)[C@H](CC(C)C)N(C)C(=O)[C@H](C(C)C)NC(=O)[C@H](CC(C)C)N(C)C(=O)CN(C)C1=O` [Compound 1, [Gly-(1S,2R,E)-8-quinolinium-1-hydroxy-2-methyloct-4-ene]^1 CsA], the “effect on T cell response” value ([1]; daily 0.1 mg/kg i.p.) was “had no effect”, the “effect on T cell response” value ([1]; daily 1 mg/kg i.p.) was “had no effect” and the “effect on T cell response” value ([1]; daily 10 mg/kg i.p.) was “inhibited the T cell response”. The ATP production ([2]; isolated mitochondria with substrates and ADP) was “Neither mitochondrial membrane potential (FIG. 4A,B), oxygen consumption (FIG. 4C, D) and ATP production (FIG. 4E, F) were affected”, the oxygen consumption ([2]; isolated mitochondria, glutamate and malate) was “Neither mitochondrial membrane potential (FIG. 4A,B), oxygen consumption (FIG. 4C, D) and ATP production (FIG. 4E, F) were affected” and the mitochondrial membrane potential ([2]; isolated mitochondria, rhodamine-123) was “Neither mitochondrial membrane potential (FIG. 4A,B), oxygen consumption (FIG. 4C, D) and ATP production (FIG. 4E, F) were affected”.
